Experimental data as given in PubChem BioAssay AID342 (DTP/NCI, 2004).
“And” between values parts separate entries of the source, which are not always exact repeats. Identical values can stand only once.

System: Swiss mice, Sarcoma 180 sc, mean tumor weight T/C
Assay: NCI In Vivo Anticancer Drug Screen. Data for tumor model Sarcoma 180 (subcutaneous) in Swiss mice
Conditions: endpoint: mean tumor weight, higher = larger tumour
Procedure, shortened: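 T/C ratio: treated over vehicle-treated controls, measuring survival or tumor size in transplanted-tumor mice.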

[1] = dose: 125.0 mg/kg/injection, schedule: Q01DX007 (sc), vehicle: steriod suspending solution
[2] = dose: 500.0 mg/kg/injection, schedule: Q01DX007 (sc), vehicle: steriod suspending solution
[3] = dose: 37.5 mg/kg/injection, schedule: Q01DX007 (ip), vehicle: carboxymethylcellulose (CMC)
[4] = dose: 75.0 mg/kg/injection, schedule: Q01DX007 (ip), vehicle: carboxymethylcellulose (CMC)

CCC(=O)O[C@H]1CC[C@H]2[C@@H]3CC[C@H]4CC(=O)[C@H](C)C[C@]4(C)[C@H]3CC[C@]12C
T/C [1]: 77 % of control | T/C (dose: 250.0 mg/kg/injection, schedule: Q01DX007 (sc), vehicle: steriod suspending solution): 101 % of control | T/C [2]: 121 % of control | T/C (dose: 1000.0 mg/kg/injection, schedule: Q01DX007 (sc), vehicle: steriod suspending solution): 62 % of control

N=[N+]=CC(=O)OCC(N)C(=O)O (centres undefined)
T/C (dose: 0.25 mg/kg/injection, schedule: Q#A X014 (ip), vehicle: carboxymethylcellulose (CMC)): 61 % of control | T/C (dose: 0.5 mg/kg/injection, schedule: Q#A X014 (ip), vehicle: carboxymethylcellulose (CMC)): 35 % of control | T/C (dose: 0.57 mg/kg/injection, schedule: Q#A X014 (ip), vehicle: carboxymethylcellulose (CMC)): 65 % of control | T/C (dose: 0.92 mg/kg/injection, schedule: Q01DX007 (ip), vehicle: carboxymethylcellulose (CMC)): 33 % of control | T/C (dose: 1.0 mg/kg/injection, schedule: Q#A X014 (ip), vehicle: carboxymethylcellulose (CMC)): 25 % of control | T/C (dose: 1.15 mg/kg/injection, schedule: Q01DX007 (ip), vehicle: carboxymethylcellulose (CMC)): 39 % of control | T/C (dose: 1.15 mg/kg/injection, schedule: Q#A X014 (ip), vehicle: carboxymethylcellulose (CMC)): 7 % of control | T/C (dose: 1.53 mg/kg/injection, schedule: Q01DX007 (ip), vehicle: carboxymethylcellulose (CMC)): 30 % of control | T/C (dose: 2.1 mg/kg/injection, schedule: Q01DX007 (ip), vehicle: carboxymethylcellulose (CMC)): 11 % of control and 12 % of control | T/C (dose: 2.3 mg/kg/injection, schedule: Q01DX007 (ip), vehicle: carboxymethylcellulose (CMC)): 14 % of control | T/C (dose: 2.3 mg/kg/injection, schedule: Q#A X014 (ip), vehicle: carboxymethylcellulose (CMC)): 3 % of control | T/C (dose: 4.2 mg/kg/injection, schedule: Q01DX007 (ip), vehicle: carboxymethylcellulose (CMC)): 3 % of control and 7 % of control | T/C (dose: 4.6 mg/kg/injection, schedule: Q#A X014 (ip), vehicle: carboxymethylcellulose (CMC)): 4 % of control | T/C (dose: 6.3 mg/kg/injection, schedule: Q01DX007 (ip), vehicle: carboxymethylcellulose (CMC)): 2 % of control and 5 % of control

CC(=O)OCC(=O)[C@@]1(O)[C@H](C)C[C@H]2[C@@H]3C=C(C)C4=Cc5c(cnn5-c5ccc(F)cc5)C[C@]4(C)[C@H]3[C@@H](O)C[C@@]21C
T/C (dose: 0.44 mg/kg/injection, schedule: Q01DX007 (sc), vehicle: steriod suspending solution): 108 % of control | T/C (dose: 0.66 mg/kg/injection, schedule: Q01DX007 (sc), vehicle: steriod suspending solution): 85 % of control | T/C (dose: 2.25 mg/kg/injection, schedule: Q01DX007 (sc), vehicle: steriod suspending solution): 23 % of control and 34 % of control | T/C (dose: 3.38 mg/kg/injection, schedule: Q01DX007 (sc), vehicle: steriod suspending solution): 37 % of control and 44 % of control and 62 % of control | T/C (dose: 5.07 mg/kg/injection, schedule: Q01DX007 (sc), vehicle: steriod suspending solution): 26 % of control and 49 % of control | T/C (dose: 7.61 mg/kg/injection, schedule: Q01DX007 (sc), vehicle: steriod suspending solution): 24 % of control | T/C (dose: 11.42 mg/kg/injection, schedule: Q01DX007 (sc), vehicle: steriod suspending solution): 24 % of control

CCCCn1cnc2c(SSc3ncnc4c3ncn4CCCC)ncnc21
T/C (dose: 53.0 mg/kg/injection, schedule: Q01DX007 (ip), vehicle: carboxymethylcellulose (CMC)): 82 % of control | T/C (dose: 53.0 mg/kg/injection, schedule: Q01DX007 (ip), vehicle: other): 62 % of control | T/C (dose: 83.0 mg/kg/injection, schedule: Q01DX007 (ip), vehicle: other): 65 % of control | T/C (dose: 83.0 mg/kg/injection, schedule: Q01DX007 (ip), vehicle: saline): 71 % of control | T/C (dose: 125.0 mg/kg/injection, schedule: Q01DX007 (ip), vehicle: other): 50 % of control | T/C (dose: 125.0 mg/kg/injection, schedule: Q01DX007 (ip), vehicle: saline): 37 % of control | T/C (dose: 187.0 mg/kg/injection, schedule: Q01DX007 (ip), vehicle: other): 30 % of control

CC(C)(c1ccccc1)c1ccc(O)cc1
T/C [3]: 64 % of control | T/C [4]: 73 % of control | T/C (dose: 150.0 mg/kg/injection, schedule: Q01DX007 (ip), vehicle: carboxymethylcellulose (CMC)): 44 % of control

CC(=O)OCC(=O)[C@@]1(O)CC[C@H]2[C@@H]3C[C@H](C)C4=CC(=O)C=C[C@]4(C)[C@@]3(F)[C@@H](O)C[C@@]21C
T/C [1]: 41 % of control | T/C (dose: 187.0 mg/kg/injection, schedule: Q01DX007 (sc), vehicle: steriod suspending solution): 30 % of control

CS(=O)(=O)OCCCl
T/C (dose: 6.67 mg/kg/injection, schedule: Q#A X014 (ip), vehicle: carboxymethylcellulose (CMC)): 92 % of control | T/C (dose: 13.35 mg/kg/injection, schedule: Q01DX007 (ip), vehicle: carboxymethylcellulose (CMC)): 117 % of control | T/C (dose: 13.35 mg/kg/injection, schedule: Q#A X014 (ip), vehicle: carboxymethylcellulose (CMC)): 95 % of control | T/C (dose: 26.7 mg/kg/injection, schedule: Q01DX007 (ip), vehicle: carboxymethylcellulose (CMC)): 106 % of control | T/C (dose: 26.7 mg/kg/injection, schedule: Q#A X014 (ip), vehicle: carboxymethylcellulose (CMC)): 86 % of control | T/C (dose: 53.4 mg/kg/injection, schedule: Q01DX007 (ip), vehicle: carboxymethylcellulose (CMC)): 100 % of control | T/C (dose: 106.8 mg/kg/injection, schedule: Q01DX007 (ip), vehicle: carboxymethylcellulose (CMC)): 94 % of control

NC(=O)c1ccccc1Nc1ccc([N+](=O)[O-])cc1[N+](=O)[O-]
T/C [3]: 92 % of control | T/C [4]: 67 % of control

COC1=C(N)C(=O)c2nc(-c3nc(C(=O)O)c(C)c(-c4ccc(OC)c(OC)c4O)c3N)ccc2C1=O
T/C (dose: 0.02 mg/kg/injection, schedule: Q01DX007 (ip), vehicle: water): 66 % of control | T/C (dose: 0.05 mg/kg/injection, schedule: Q01DX007 (ip), vehicle: water): 70 % of control | T/C (dose: 0.05 mg/kg/injection, schedule: Q#A X014 (ip), vehicle: alkali diluted with CMC): 61 % of control | T/C (dose: 0.09 mg/kg/injection, schedule: Q01DX007 (ip), vehicle: other): 37 % of control | T/C (dose: 0.1 mg/kg/injection, schedule: Q01DX007 (ip), vehicle: water): 53 % of control and 54 % of control | T/C (dose: 0.1 mg/kg/injection, schedule: Q#A X014 (ip), vehicle: alkali diluted with CMC): 52 % of control | T/C (dose: 0.13 mg/kg/injection, schedule: Q01DX007 (ip), vehicle: other): 83 % of control | T/C (dose: 0.2 mg/kg/injection, schedule: Q01DX007 (ip), vehicle: other): 73 % of control | T/C (dose: 0.2 mg/kg/injection, schedule: Q01DX007 (ip), vehicle: water): 48 % of control | T/C (dose: 0.2 mg/kg/injection, schedule: Q#A X014 (ip), vehicle: alkali diluted with CMC): 65 % of control | T/C (dose: 0.25 mg/kg/injection, schedule: Q01DX007 (ip), vehicle: water): 27 % of control | T/C (dose: 0.3 mg/kg/injection, schedule: Q01DX007 (ip), vehicle: other): 54 % of control

Cc1cc(N)c2cc(NC(=O)/C=C\c3ccccc3Cl)ccc2n1
T/C (dose: 11.0 mg/kg/injection, schedule: Q01DX007 (ip), vehicle: carboxymethylcellulose (CMC)): 89 % of control | T/C (dose: 17.0 mg/kg/injection, schedule: Q01DX007 (ip), vehicle: carboxymethylcellulose (CMC)): 77 % of control | T/C (dose: 25.0 mg/kg/injection, schedule: Q01DX007 (ip), vehicle: carboxymethylcellulose (CMC)): 46 % of control

CC1CCC2(NC1)OC1CC3C4CC=C5CC(OC6OC(CO)C(OC7OC(C)C(O)C(O)C7O)C(O)C6OC6OC(C)C(O)C(O)C6O)CCC5(C)C4CCC3(C)C1C2C (centres undefined)
T/C (dose: 150.0 mg/kg/injection, schedule: Q01DX007 (sc), vehicle: steriod suspending solution): 115 % of control | T/C (dose: 300.0 mg/kg/injection, schedule: Q01DX007 (sc), vehicle: steriod suspending solution): 100 % of control | T/C [2]: 79 % of control

NC(Cc1cccs1)C(=O)O (centres undefined)
T/C (dose: 175.0 mg/kg/injection, schedule: Q01DX007 (ip), vehicle: carboxymethylcellulose (CMC)): 95 % of control | T/C (dose: 250.0 mg/kg/injection, schedule: Q01DX007 (ip), vehicle: carboxymethylcellulose (CMC)): 81 % of control | T/C (dose: 1000.0 mg/kg/injection, schedule: Q01DX007 (ip), vehicle: carboxymethylcellulose (CMC)): 108 % of control

Cn1cnc([N+](=O)[O-])c1Sc1nc(N)nc2nc[nH]c12
T/C (dose: 1.35 mg/kg/injection, schedule: Q#A X014 (ip), vehicle: methylcellulose (MC)): 95 % of control | T/C (dose: 3.0 mg/kg/injection, schedule: Q#A X014 (ip), vehicle: methylcellulose (MC)): 31 % of control | T/C (dose: 5.0 mg/kg/injection, schedule: Q#A X014 (ip), vehicle: methylcellulose (MC)): 27 % of control | T/C (dose: 5.15 mg/kg/injection, schedule: Q#A X014 (ip), vehicle: methylcellulose (MC)): 29 % of control | T/C (dose: 7.5 mg/kg/injection, schedule: Q#A X014 (ip), vehicle: methylcellulose (MC)): 22 % of control | T/C (dose: 7.75 mg/kg/injection, schedule: Q#A X014 (ip), vehicle: methylcellulose (MC)): 29 % of control | T/C (dose: 11.5 mg/kg/injection, schedule: Q#A X014 (ip), vehicle: methylcellulose (MC)): 3 % of control
